# Tests used:
# Test in all cases: radiometric filter-binding kinase assay, Kinase HotSpot
# Conditions in all cases: compound 0.5 µM; ATP 10 µM
# EPHA7 (human) = EPHA7 (human) (UniProt Q15375)
# CSNK2A1 (human) = CSNK2A1 (human) (UniProt P68400)
# ERBB2 (human) = ERBB2 (human) (UniProt P04626)
# FGR (human) = FGR (human) (UniProt P09769)
# ROCK1 (human) = ROCK1 (human) (UniProt Q13464)
# FYN (human) = FYN (human) (UniProt P06241)
# EPHB1 (human) = EPHB1 (human) (UniProt P54762)
# PRKCA (human) = PRKCA (human) (UniProt P17252)
# IGF1R (human) = IGF1R (human) (UniProt P08069)
# PLK3 (human) = PLK3 (human) (UniProt Q9H4B4)
# PBK (human) = PBK (human) (UniProt Q96KB5)
# MAP4K2 (human) = MAP4K2 (human) (UniProt Q12851)
# NEK2 (human) = NEK2 (human) (UniProt P51955)
# MAPKAPK2 (human) = MAPKAPK2 (human) (UniProt P49137)
# MST1R (human) = MST1R (human) (UniProt Q04912)
# CSNK1A1 (human) = CSNK1A1 (human) (UniProt P48729)
# Sequence of CSNK1A1 (human) (P48729 whole entry, looked up): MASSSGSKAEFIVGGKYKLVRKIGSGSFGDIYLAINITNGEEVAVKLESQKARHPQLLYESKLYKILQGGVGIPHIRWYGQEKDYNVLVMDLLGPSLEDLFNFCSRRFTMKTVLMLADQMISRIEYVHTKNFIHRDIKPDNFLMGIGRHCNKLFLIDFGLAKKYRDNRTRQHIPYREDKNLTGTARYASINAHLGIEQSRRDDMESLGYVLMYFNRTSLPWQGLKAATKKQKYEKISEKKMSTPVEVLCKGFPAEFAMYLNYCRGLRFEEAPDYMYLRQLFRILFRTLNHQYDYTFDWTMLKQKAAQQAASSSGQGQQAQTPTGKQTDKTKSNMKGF
# MYLK2 (human) = MYLK2 (human) (UniProt Q9H1R3)
# IKBKB (human) = IKBKB (human) (UniProt O14920)
# Sequence of IKBKB (human) (O14920 whole entry, looked up): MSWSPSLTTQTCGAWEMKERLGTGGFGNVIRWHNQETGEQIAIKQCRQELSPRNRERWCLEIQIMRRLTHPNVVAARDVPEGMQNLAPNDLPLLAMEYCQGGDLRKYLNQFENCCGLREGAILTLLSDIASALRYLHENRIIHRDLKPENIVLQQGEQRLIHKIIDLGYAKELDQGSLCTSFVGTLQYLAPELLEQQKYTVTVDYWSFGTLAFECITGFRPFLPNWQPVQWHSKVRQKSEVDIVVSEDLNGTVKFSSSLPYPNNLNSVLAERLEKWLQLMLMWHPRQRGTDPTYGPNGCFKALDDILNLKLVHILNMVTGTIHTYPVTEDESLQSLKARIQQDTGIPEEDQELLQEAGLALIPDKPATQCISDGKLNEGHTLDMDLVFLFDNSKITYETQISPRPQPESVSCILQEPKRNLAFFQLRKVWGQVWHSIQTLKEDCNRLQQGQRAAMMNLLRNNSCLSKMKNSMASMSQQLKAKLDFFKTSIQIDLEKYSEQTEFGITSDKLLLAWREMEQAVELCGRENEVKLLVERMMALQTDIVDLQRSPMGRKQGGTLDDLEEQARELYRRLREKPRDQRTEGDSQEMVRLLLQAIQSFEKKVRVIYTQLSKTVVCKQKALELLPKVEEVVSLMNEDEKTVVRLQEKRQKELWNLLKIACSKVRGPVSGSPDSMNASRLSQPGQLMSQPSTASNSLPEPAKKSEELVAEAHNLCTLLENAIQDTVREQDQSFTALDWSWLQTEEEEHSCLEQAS
# MUSK (human) = MUSK (human) (UniProt O15146)
# Sequence of MUSK (human) (O15146 whole entry, looked up): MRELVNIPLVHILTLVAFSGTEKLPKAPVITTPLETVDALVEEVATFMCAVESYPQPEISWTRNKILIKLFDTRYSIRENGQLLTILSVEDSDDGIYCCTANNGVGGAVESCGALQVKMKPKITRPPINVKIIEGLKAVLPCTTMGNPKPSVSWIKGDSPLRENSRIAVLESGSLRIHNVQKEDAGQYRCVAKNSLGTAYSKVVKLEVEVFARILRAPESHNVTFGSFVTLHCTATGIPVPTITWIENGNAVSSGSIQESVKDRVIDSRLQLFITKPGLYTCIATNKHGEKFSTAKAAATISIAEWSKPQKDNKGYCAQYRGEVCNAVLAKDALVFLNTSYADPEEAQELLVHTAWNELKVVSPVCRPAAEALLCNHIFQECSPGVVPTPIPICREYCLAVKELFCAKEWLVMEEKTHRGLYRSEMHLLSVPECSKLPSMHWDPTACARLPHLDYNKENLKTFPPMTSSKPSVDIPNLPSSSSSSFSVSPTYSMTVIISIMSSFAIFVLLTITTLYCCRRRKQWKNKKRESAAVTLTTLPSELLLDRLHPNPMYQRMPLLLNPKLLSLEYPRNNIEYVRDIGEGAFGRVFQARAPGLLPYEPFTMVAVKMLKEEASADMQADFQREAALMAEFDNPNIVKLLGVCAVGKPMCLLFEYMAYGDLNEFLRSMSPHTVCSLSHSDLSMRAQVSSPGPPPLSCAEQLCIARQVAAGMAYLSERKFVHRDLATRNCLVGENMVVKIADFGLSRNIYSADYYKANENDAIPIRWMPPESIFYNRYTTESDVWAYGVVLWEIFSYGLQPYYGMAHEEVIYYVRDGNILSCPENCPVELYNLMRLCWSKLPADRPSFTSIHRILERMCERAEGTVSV
# DYRK1B (human) = DYRK1B (human) (UniProt Q9Y463)
# MAP3K11 (human) = MAP3K11 (human) (UniProt Q16584)
# STK33 (human) = STK33 (human) (UniProt Q9BYT3)
# Sequence of STK33 (human) (Q9BYT3 whole entry, looked up): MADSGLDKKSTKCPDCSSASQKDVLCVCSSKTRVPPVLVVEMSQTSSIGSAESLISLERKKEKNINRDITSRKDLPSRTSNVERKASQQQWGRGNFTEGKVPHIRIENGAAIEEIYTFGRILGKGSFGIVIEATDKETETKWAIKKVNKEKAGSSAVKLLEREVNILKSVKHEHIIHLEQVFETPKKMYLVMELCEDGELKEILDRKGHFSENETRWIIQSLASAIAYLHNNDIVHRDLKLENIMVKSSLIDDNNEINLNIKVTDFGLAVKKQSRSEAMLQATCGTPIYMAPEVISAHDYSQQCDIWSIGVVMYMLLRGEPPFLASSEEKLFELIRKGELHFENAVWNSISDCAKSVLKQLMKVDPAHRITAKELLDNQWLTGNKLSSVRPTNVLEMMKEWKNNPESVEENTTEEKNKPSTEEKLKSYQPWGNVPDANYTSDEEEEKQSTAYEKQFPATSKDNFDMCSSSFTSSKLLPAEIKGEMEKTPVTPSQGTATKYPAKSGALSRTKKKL
# ADRBK1 (human) = ADRBK1 (human) (UniProt P25098)
# STK17A (human) = STK17A (human) (UniProt Q9UEE5)
# TBK1 (human) = TBK1 (human) (UniProt Q9UHD2)
# RPS6KB1 (human) = RPS6KB1 (human) (UniProt P23443)
# CDK3 CCNE1 (human) = CDK3 CCNE1 (human) (UniProt Q00526+P24864)
# PKN2 (human) = PKN2 (human) (UniProt Q16513)
# CLK3 (human) = CLK3 (human) (UniProt P49761)
# PRKCB2 (human) = PRKCB2 (human) (UniProt P05771)
# PRKCI (human) = PRKCI (human) (UniProt P41743)
# EPHA3 (human) = EPHA3 (human) (UniProt P29320)
# Sequence of EPHA3 (human) (P29320 whole entry, looked up): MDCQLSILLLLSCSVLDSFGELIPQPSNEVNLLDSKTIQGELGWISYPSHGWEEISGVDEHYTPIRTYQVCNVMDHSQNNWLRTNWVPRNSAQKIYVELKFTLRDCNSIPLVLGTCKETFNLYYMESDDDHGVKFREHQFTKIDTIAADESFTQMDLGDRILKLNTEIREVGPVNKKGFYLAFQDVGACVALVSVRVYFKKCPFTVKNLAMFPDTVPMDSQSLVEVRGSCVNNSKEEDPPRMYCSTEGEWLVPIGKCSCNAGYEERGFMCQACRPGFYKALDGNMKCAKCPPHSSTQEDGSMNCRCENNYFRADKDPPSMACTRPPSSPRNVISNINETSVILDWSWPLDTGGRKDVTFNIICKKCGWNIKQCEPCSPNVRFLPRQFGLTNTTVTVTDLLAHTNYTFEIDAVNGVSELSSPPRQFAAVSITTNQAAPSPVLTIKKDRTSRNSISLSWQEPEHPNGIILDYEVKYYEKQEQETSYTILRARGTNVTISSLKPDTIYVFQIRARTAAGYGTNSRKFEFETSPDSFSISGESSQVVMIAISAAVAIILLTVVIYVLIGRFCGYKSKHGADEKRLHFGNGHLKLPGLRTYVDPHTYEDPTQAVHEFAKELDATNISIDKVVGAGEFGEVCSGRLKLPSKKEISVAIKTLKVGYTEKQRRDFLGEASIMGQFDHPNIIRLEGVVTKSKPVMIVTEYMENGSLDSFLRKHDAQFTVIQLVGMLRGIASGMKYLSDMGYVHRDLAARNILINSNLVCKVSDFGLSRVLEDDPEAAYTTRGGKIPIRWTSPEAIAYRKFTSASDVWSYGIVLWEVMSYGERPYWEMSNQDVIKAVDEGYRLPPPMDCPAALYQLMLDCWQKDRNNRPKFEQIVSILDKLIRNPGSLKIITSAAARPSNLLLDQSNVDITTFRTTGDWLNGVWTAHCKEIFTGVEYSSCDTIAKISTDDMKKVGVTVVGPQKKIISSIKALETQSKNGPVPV
# CSNK1E (human) = CSNK1E (human) (UniProt P49674)
# CAMKK1 (human) = CAMKK1 (human) (UniProt Q8N5S9)
# IKBKE (human) = IKBKE (human) (UniProt Q14164)
# PAK4 (human) = PAK4 (human) (UniProt O96013)
# JAK3 JH1 JH2 (human) = JAK3 JH1 JH2 (human) (UniProt P52333)
# TYRO3 (human) = TYRO3 (human) (UniProt Q06418)
# MAP3K5 (human) = MAP3K5 (human) (UniProt Q99683)
# MLTK (human) = MLTK (human) (UniProt Q9NYL2)
# RIPK2 (human) = RIPK2 (human) (UniProt O43353)
# PRKG2 (human) = PRKG2 (human) (UniProt Q13237)
# Sequence of FGR (human) (P09769 whole entry, looked up): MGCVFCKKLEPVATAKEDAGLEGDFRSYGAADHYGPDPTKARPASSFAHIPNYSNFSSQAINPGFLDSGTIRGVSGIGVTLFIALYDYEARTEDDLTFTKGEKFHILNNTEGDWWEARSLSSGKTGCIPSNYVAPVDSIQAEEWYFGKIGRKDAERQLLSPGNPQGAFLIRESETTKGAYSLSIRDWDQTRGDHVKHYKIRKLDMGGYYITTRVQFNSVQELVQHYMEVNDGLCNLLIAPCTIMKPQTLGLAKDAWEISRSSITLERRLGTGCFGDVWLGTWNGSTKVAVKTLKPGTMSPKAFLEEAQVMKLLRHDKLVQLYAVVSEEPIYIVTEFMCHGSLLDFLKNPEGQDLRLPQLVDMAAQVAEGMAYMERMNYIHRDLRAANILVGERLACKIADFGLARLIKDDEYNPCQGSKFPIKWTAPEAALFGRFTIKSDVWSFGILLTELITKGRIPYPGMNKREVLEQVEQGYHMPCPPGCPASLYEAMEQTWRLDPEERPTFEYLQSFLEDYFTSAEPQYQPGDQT
# Sequence of EPHB1 (human) (P54762 whole entry, looked up): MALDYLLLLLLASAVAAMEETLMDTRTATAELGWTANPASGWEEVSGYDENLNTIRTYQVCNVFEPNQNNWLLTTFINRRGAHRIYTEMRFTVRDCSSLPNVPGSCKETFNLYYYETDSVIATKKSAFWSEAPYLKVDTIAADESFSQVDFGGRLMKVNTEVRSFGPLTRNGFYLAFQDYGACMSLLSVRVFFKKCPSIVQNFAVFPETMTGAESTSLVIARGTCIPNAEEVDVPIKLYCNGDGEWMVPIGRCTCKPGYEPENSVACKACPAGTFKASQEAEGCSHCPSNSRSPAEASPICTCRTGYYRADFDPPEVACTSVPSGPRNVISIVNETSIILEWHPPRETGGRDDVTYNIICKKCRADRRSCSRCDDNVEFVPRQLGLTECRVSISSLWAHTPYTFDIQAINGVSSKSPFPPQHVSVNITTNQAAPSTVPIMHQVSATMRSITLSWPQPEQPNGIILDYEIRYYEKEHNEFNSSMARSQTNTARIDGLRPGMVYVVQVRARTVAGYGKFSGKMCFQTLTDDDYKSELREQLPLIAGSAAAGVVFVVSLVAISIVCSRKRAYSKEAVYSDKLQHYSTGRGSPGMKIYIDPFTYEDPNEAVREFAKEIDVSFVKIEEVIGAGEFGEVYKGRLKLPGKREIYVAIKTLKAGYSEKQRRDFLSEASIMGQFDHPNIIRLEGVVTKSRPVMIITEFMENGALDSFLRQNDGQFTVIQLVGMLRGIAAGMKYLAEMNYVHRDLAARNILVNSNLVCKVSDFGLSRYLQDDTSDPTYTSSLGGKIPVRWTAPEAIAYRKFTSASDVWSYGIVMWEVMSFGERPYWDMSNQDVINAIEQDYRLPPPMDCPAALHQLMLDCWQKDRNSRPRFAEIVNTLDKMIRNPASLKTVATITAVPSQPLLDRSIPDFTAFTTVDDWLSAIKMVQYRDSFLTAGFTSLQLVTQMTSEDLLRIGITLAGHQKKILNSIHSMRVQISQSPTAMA
structure (smiles),measurement,setting,value
COc1cc2ncnc(Nc3ccc(F)c(Cl)c3)c2cc1OCCCN1CCOCC1,residual activity,EPHA7 (human),74.3%
same,residual activity,CSNK2A1 (human),114%
same,residual activity,ERBB2 (human),34.2%
same,residual activity,FGR (human),70.1%
same,residual activity,ROCK1 (human),106%
same,residual activity,FYN (human),92.2%
same,residual activity,EPHB1 (human),94.8%
same,residual activity,PRKCA (human),93.6%
same,residual activity,IGF1R (human),92.3%
same,residual activity,PLK3 (human),103%
same,residual activity,PBK (human),102%
same,residual activity,MAP4K2 (human),104%
same,residual activity,NEK2 (human),98.4%
same,residual activity,MAPKAPK2 (human),97.5%
same,residual activity,MST1R (human),97.7%
same,residual activity,CSNK1A1 (human),98.6%
same,residual activity,MYLK2 (human),99.2%
same,residual activity,IKBKB (human),86.5%
same,residual activity,MUSK (human),98.1%
same,residual activity,DYRK1B (human),91.9%
same,residual activity,MAP3K11 (human),102%
same,residual activity,STK33 (human),90.4%
same,residual activity,ADRBK1 (human),93.3%
same,residual activity,STK17A (human),96%
same,residual activity,TBK1 (human),83.1%
same,residual activity,RPS6KB1 (human),93.9%
same,residual activity,CDK3 CCNE1 (human),95%
same,residual activity,PKN2 (human),93.1%
same,residual activity,CLK3 (human),106%
same,residual activity,PRKCB2 (human),100%
same,residual activity,PRKCI (human),96.9%
same,residual activity,EPHA3 (human),94.4%
same,residual activity,CSNK1E (human),106%
same,residual activity,CAMKK1 (human),93.8%
same,residual activity,IKBKE (human),89.9%
same,residual activity,PAK4 (human),90.2%
same,residual activity,JAK3 JH1 JH2 (human),96.6%
same,residual activity,TYRO3 (human),94.9%
same,residual activity,MAP3K5 (human),103%
same,residual activity,MLTK (human),96.2%
O=C1Nc2cc(Br)ccc2/C1=C1/Nc2ccccc2/C1=N\O,residual activity,RIPK2 (human),75.2%
same,residual activity,EPHA7 (human),81.4%
same,residual activity,CSNK2A1 (human),82.2%
same,residual activity,ERBB2 (human),102%
same,residual activity,FGR (human),2.99%
same,residual activity,ROCK1 (human),99%
same,residual activity,FYN (human),5.05%
same,residual activity,EPHB1 (human),72.3%
same,residual activity,IGF1R (human),103%
same,residual activity,PLK3 (human),95.3%
same,residual activity,PBK (human),109%
same,residual activity,MAP4K2 (human),61.5%
same,residual activity,NEK2 (human),95.5%
same,residual activity,MAPKAPK2 (human),86.9%
same,residual activity,PRKG2 (human),69.1%
same,residual activity,MST1R (human),98.7%
same,residual activity,CSNK1A1 (human),95.1%
same,residual activity,MYLK2 (human),17.6%
same,residual activity,IKBKB (human),85.4%
same,residual activity,MUSK (human),84.5%
same,residual activity,DYRK1B (human),80.3%
same,residual activity,MAP3K11 (human),16%
same,residual activity,STK33 (human),69.4%
same,residual activity,ADRBK1 (human),97.3%
same,residual activity,STK17A (human),49.2%
same,residual activity,TBK1 (human),62.1%
same,residual activity,RPS6KB1 (human),79.6%
same,residual activity,CDK3 CCNE1 (human),25.2%
same,residual activity,PKN2 (human),85.6%
same,residual activity,CLK3 (human),71.2%
same,residual activity,PRKCB2 (human),108%
same,residual activity,PRKCI (human),97.3%
same,residual activity,EPHA3 (human),81.9%
same,residual activity,CSNK1E (human),83.7%
same,residual activity,CAMKK1 (human),50.5%
same,residual activity,IKBKE (human),66.3%
same,residual activity,PAK4 (human),95.3%
same,residual activity,JAK3 JH1 JH2 (human),53.3%
same,residual activity,TYRO3 (human),81.6%
same,residual activity,MAP3K5 (human),91.6%
same,residual activity,MLTK (human),69%
